According to PubChem BioAssay (NCI):
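Test compounds were applied to cells in 96-well plates for 48 hours at 5 doses. GI50: concentration for 50% inhibition of growth. TGI denotes the concentration required for complete inhibition of growth.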

How the values were obtained:
Assay in all cases: NCI anticancer screen, dose series, 48 h
[1] = tested on: SK-OV-3 ovarian
[2] = tested on: MALME-3M melanoma
[3] = tested on: SN12C renal
[4] = tested on: NCI-H522 lung
[5] = tested on: HL-60(TB) leukemia
[6] = tested on: NCI-H23 lung
[7] = tested on: HCC-2998 colon
[8] = tested on: UO-31 renal
[9] = tested on: SF-295 CNS
[10] = tested on: HOP-62 NSCLC

Structure (SMILES): CCn1cnc2c(Nc3cccc(Cl)c3)nc(N[C@@H]3CCCC[C@@H]3N)nc21
- GI50 [1]: 3.85 µM
- TGI [1]: 10.8 µM
- GI50 [2]: 1.57 µM
- TGI [2]: 3.21 µM
- GI50 [3]: 2.08 µM
- TGI [3]: 7.62 µM
- GI50 [4]: 1.64 µM
- TGI [4]: 3.8 µM
- GI50 [5]: 1.78 µM
- TGI [5]: 3.93 µM
- GI50 [6]: 1.38 µM
- TGI [6]: 3.59 µM
- GI50 [7]: 1.77 µM
- TGI [7]: 4.35 µM
- GI50 [8]: 1.6 µM
- TGI [8]: 4.04 µM
- GI50 [9]: 1.55 µM
- TGI [9]: 4.51 µM
- GI50 [10]: 1.52 µM
- TGI [10]: 3.71 µM

Structure (SMILES): COc1ccc(/C(C)=N/OC(=O)c2c(-c3ccccc3Cl)noc2C)cc1CN1CCOCC1
- TGI [1]: > 100 µM
- TGI [2]: 43.7 µM
- TGI [3]: 51.3 µM
- TGI [4]: 48.3 µM
- TGI [5]: 56.1 µM
- TGI [6]: > 100 µM
- TGI [7]: 93.8 µM
- TGI [8]: 22.3 µM
- TGI [9]: 32.8 µM
- TGI [10]: 62.1 µM

Structure (SMILES): N.N.NCCCCN.O=C([O-])C1(C(=O)[O-])CCC1.O=C([O-])C1(C(=O)[O-])CCC1.[Pt+4].[Pt+4]
- GI50 [1]: > 100 µM
- TGI [1]: > 100 µM
- GI50 [2]: > 100 µM
- TGI [2]: > 100 µM
- GI50 [3]: 63.8 µM
- TGI [3]: > 100 µM
- GI50 [4]: > 100 µM
- TGI [4]: > 100 µM
- GI50 [5]: > 100 µM
- TGI [5]: > 100 µM
- GI50 [6]: 78.6 µM
- TGI [6]: > 100 µM
- GI50 [7]: > 100 µM
- TGI [7]: > 100 µM
- GI50 [8]: > 100 µM
- TGI [8]: > 100 µM
- GI50 [9]: > 100 µM
- TGI [9]: > 100 µM
- GI50 [10]: > 100 µM
- TGI [10]: > 100 µM

Structure (SMILES): O=C(COc1ccccc1)NS(=O)(=O)c1ccccc1
- TGI [1]: > 100 µM
- TGI [2]: > 100 µM
- TGI [3]: > 100 µM
- TGI [4]: > 100 µM
- TGI [5]: > 100 µM
- TGI [6]: > 100 µM
- TGI [7]: > 100 µM
- TGI [8]: > 100 µM
- TGI [9]: > 100 µM
- TGI [10]: > 100 µM
